Source: patent US10023579B2, “Pyrrolopyrimidine compounds, use as inhibitors of the kinase LRRK2, and methods for preparation thereof” (Southern Research Institute, priority 2015, dated 2018)
Several values for one entry are separate records, joined by “and”; a condition that tells them apart may be missing. Equal values may be shown once.

Tests used:
[1] = target: T1, WT-LRRK2 (recombinant GST-LRRK2 delta970) (Homo sapiens, UniProt Q5S007); assay: LRRK2 kinase assay, wild type (32P radiometric, peptide substrate); format: biochemical; details: WT-LRRK2 30 nM, ATP ~92 μM (Km), 30 min at 30° C.
T1 construct: Recombinant GST-LRRK2 (delta970); GST (N); host or cells: baculovirus-infected Sf9 insect cells
T1 sequence (Q5S007 970-2527 limits assumed): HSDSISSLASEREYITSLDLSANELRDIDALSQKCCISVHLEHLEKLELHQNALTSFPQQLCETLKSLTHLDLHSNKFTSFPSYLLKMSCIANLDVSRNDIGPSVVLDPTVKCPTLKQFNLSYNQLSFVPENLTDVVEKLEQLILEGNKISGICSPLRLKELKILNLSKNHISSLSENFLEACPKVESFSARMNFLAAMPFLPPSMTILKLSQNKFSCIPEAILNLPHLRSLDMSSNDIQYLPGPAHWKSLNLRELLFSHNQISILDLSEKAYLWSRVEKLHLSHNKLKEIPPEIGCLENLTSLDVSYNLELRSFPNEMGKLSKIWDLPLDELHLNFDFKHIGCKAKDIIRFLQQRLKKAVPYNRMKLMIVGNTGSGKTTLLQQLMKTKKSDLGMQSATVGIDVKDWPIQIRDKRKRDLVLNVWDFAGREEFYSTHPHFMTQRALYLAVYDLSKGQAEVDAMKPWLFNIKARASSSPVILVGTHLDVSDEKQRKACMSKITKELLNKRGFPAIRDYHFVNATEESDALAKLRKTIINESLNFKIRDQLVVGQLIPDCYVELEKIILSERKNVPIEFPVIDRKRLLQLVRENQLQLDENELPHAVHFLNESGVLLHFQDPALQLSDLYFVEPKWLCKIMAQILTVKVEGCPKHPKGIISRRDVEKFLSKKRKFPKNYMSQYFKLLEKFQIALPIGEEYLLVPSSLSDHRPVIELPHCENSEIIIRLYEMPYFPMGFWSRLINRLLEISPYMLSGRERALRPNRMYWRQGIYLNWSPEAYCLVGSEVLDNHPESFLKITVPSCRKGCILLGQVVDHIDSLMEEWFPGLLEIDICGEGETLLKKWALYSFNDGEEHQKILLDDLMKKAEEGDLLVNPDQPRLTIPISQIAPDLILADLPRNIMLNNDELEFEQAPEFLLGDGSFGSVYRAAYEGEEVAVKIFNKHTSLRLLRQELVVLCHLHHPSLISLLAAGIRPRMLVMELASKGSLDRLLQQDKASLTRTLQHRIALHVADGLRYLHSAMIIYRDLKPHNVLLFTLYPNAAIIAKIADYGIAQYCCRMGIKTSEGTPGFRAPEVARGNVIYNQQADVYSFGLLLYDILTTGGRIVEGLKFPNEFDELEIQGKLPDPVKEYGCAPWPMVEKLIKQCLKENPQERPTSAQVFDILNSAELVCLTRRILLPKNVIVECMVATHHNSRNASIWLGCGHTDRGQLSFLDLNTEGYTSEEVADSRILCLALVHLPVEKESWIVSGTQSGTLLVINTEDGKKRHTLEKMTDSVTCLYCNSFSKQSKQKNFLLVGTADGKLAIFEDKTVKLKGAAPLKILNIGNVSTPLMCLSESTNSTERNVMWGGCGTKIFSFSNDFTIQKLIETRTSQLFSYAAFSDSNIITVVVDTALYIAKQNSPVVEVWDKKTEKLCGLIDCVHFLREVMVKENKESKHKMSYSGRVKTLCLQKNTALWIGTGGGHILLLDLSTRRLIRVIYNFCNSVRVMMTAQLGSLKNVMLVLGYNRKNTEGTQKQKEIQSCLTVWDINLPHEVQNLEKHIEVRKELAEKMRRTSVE
Description: (§1) Compounds were assessed for inhibition of LRRK2 inhibition using the following procedure. Recombinant GST-LRRK2 (delta970) purified from baculovirus infected insect cells (SF9), at least 90% pure and either wild-type sequence or bearing the pathogenic G2019S mutation, was combined into a kinase buffer at 30 nM concentration. Kinase buffer consists of 50 mM Tris HCl pH 7.4, 1 mM EDTA, and 50 μM peptide substrate (amino acid sequence […]). Experimental compounds or control (no compound) were added at desired concentrations in DMSO and water, where final concentration of DMSO in kinase reactions was 0.1% for all drug concentrations. […] Reactions were incubated at 1400 RPM at 30° C. for 30 min. and then spotted in triplicate directly onto a slot-blot apparatus fitted with phospho-cellulose paper and allowed to dry. Each slot was then washed with 10 mM phosphoric acid buffer until beta-radiation could not be detected in eluted wash buffer, usually ˜1 mL per slot. Paper within each slot were excised and radiation measured by liquid scintillation.

[2] = target: T2, G2019S-LRRK2 (recombinant GST-LRRK2 delta970) (Homo sapiens, UniProt Q5S007, G2019S); assay: LRRK2 kinase assay, G2019S mutant (32P radiometric, peptide substrate); format: biochemical; details: G2019S-LRRK2 30 nM, ATP ~52 μM (Km), 30 min at 30° C.
T2 construct: Recombinant GST-LRRK2 (delta970); GST (N); host or cells: baculovirus-infected Sf9 insect cells
T2 sequence (Q5S007 970-2527 G2019S limits assumed): as the sequence (Q5S007 970-2527 limits assumed) above, with G1050S counted along it
Description: as §1

IC50 [1] | IC50 [2] | Structure (SMILES)
0.04 µM | 0.061 µM | C[C@H](Nc1nc(Nc2cn(C3CCOC3)nn2)nc2[nH]ccc12)C1CC1 (stereo in doubt) [Compound 50, N4-((S)-1-cyclopropylethyl)-N2-(1-((S)-tetrahydrofuran-3-yl)-1H-1,2,3-triazol-4-yl)-7H-pyrrolo[2,3-d]pyrimidine-2,4-diamine]
0.008 µM | 0.019 µM | Cn1cc(Nc2nc(NC3CCC3)c3cc[nH]c3n2)cn1 [Compound 7, N4-cyclobutyl-N2-(1-methyl-1H-pyrazol-4-yl)-7H-pyrrolo[2,3-d]pyrimidine-2,4-diamine]
0.005 µM | 0.009 µM | CC(C)n1cc(Nc2nc(NC3CCC3)c3cc[nH]c3n2)cn1 [Compound 8, N4-cyclobutyl-N2-(1-isopropyl-1H-pyrazol-4-yl)-7H-pyrrolo[2,3-d]pyrimidine-2,4-diamine]
0.038 µM | 0.1 µM | C[C@H](Nc1nc(Nc2cnn(C)c2)nc2[nH]cnc12)C1CC1 [Compound 9, (S)-N6-(1-cyclopropylethyl)-N2-(1-methyl-1H-pyrazol-4-yl)-9H-purine-2,6-diamine]
0.019 µM | 0.048 µM | Cc1cc(Nc2nc(N[C@@H](C)C3CC3)c3nc[nH]c3n2)n[nH]1 [Compound 10, (S)-N6-(1-cyclopropylethyl)-N2-(5-methyl-1H-pyrazol-3-yl)-9H-purine-2,6-diamine]
0.01 µM | 0.022 µM | CC(C)n1cc(Nc2nc(N[C@@H](C)C3CC3)c3nc[nH]c3n2)cn1 [Compound 12, (S)-N6-(1-cyclopropylethyl)-N2-(1-isopropyl-1H-pyrazol-4-yl)-9H-purine-2,6-diamine]
0.007 µM | 0.015 µM | CC(C)n1cc(Nc2nc(NC3CCC3)c3nc[nH]c3n2)cn1 [Compound 13, N6-cyclobutyl-N2-(1-isopropyl-1H-pyrazol-4-yl)-9H-purine-2,6-diamine]
0.037 µM | 0.049 µM | Cc1c(Nc2nc(N[C@H]3CCc4ccccc43)c3cc[nH]c3n2)cnn1C(C)C(=O)N1CCN(C)CC1 (stereo partly drawn) [Compound 18, 2-(4-((4-(((S)-2,3-dihydro-1H-inden-1-yl)amino)-7H-pyrrolo[2,3-d]pyrimidin-2-yl)amino)-5-methyl-1H-pyrazol-1-yl)-1-(4-methylpiperazin-1-yl)propan-1-one]
0.037 µM | 0.056 µM | CC(C)n1cc(Nc2nc(N[C@@H](C)c3ccccc3)c3cc[nH]c3n2)cn1 [Compound 22, (S)-N2-(1-isopropyl-1H-pyrazol-4-yl)-N4-(1-phenylethyl)-7H-pyrrolo[2,3-d]pyrimidine-2,4-diamine]
0.055 µM | 0.063 µM | Cc1c(Nc2nc(N[C@@H](C)c3ccccc3)c3cc[nH]c3n2)cnn1C(C)C [Compound 24, (S)-N2-(1-isopropyl-5-methyl-1H-pyrazol-phenylethyl)-7H-pyrrolo[2,3-d]pyrimidine-2,4-diamine]
0.042 µM | 0.043 µM | Cc1c(Nc2nc(N[C@@H](C)C3CCCCC3)c3cc[nH]c3n2)cnn1C(C)C [Compound 25, (S)-N4-(1-cyclohexylethyl)-N2-(1-isopropyl-5-methyl-1H-pyrazol-4-yl)-7H-pyrrolo[2,3-d]pyrimidine-2,4-diamine]
0.02 µM | 0.03 µM | C[C@H](Nc1nc(Nc2cnn(C)c2)nc2[nH]ccc12)C1CC1 [Compound 28, (S)-N4-(1-cyclopropylethyl)-N2-(1-methyl-1H-pyrazol-4-yl)-7H-pyrrolo[2,3-d]pyrimidine-2,4-diamine]
0.012 µM | 0.017 µM | CCn1cc(Nc2nc(N[C@@H](C)C3CC3)c3cc[nH]c3n2)cn1 [Compound 29]
0.02 µM | 0.023 µM | C[C@H](Nc1nc(Nc2cnn(C3CCN(C)CC3)c2)nc2[nH]ccc12)C1CC1 [Compound 31, (S)-N4-(1-cyclopropylethyl)-N2-(1-(1-methylpiperidin-4-yl)-1H-pyrazol-4-yl)-7H-pyrrolo[2,3-d]pyrimidine-2,4-diamine]
0.011 µM | 0.011 µM | COCCn1cc(Nc2nc(N[C@@H](C)C3CC3)c3cc[nH]c3n2)cn1 [Compound 32, (S)-N4-(1-cyclopropylethyl)-N2-(1-(2-methoxyethyl)-1H-pyrazol-4-yl)-7H-pyrrolo[2,3-d]pyrimidine-2,4-diamine]
0.011 µM | 0.015 µM | COCC(C)n1cc(Nc2nc(N[C@@H](C)C3CC3)c3cc[nH]c3n2)cn1 (stereo partly drawn) [Compound 34, N4-((S)-1-cyclopropylethyl)-N2-(1-(1-methoxypropan-2-yl)-1H-pyrazol-4-yl)-7H-pyrrolo[2,3-d]pyrimidine-2,4-diamine]

IC50 [1] | IC50 [2] | Structure (SMILES)
0.066 µM | 0.097 µM | CC(C)n1cc(Nc2nc(N[C@@H](C)c3ccccn3)c3cc[nH]c3n2)cn1 [Compound 35, (S)-N2-(1-isopropyl-1H-pyrazol-4-yl)-N4-(1-(pyridin-2-yl)ethyl)-7H-pyrrolo[2,3-d]pyrimidine-2,4-diamine]
0.038 µM | 0.044 µM | Cc1cc(Nc2nc(N[C@@H](C)C3CC3)c3cc[nH]c3n2)n[nH]1 [Compound 36, (S)-N4-(1-cyclopropylethyl)-N2-(5-methyl-1H-pyrazol-3-yl)-7H-pyrrolo[2,3-d]pyrimidine-2,4-diamine]
– | 0.058 µM and 0.113 µM and 0.088 µM | COCCn1cc(Nc2nc(N[C@@H](C)C3CC3)c3cc[nH]c3n2)nn1 [Compound 39, (S)-N4-(1-cyclopropylethyl)-N2-(1-(2-methoxyethyl)-1H-1,2,3-triazol-4-yl)-7H-pyrrolo[2,3-d]pyrimidine-2,4-diamine]
0.05 µM | 0.065 µM | C[C@H](Nc1nc(Nc2cnn(CCN(C)C)c2)nc2[nH]ccc12)C1CC1 [Compound 41, (S)-N4-(1-cyclopropylethyl)-N2-(1-(2-(dimethylamino)ethyl)-1H-pyrazol-4-yl)-7H-pyrrolo[2,3-d]pyrimidine-2,4-diamine]
0.067 µM | 0.078 µM | CC(C)n1cc(Nc2nc(N[C@@H](C)C3CCC3)c3cc[nH]c3n2)cn1 [Compound 42, (S)-N4-(1-cyclobutylethyl)-N2-(1-isopropyl-1H-pyrazol-4-yl)-7H-pyrrolo[2,3-d]pyrimidine-2,4-diamine]
0.012 µM | 0.017 µM | CNC(=O)C(C)n1cc(Nc2nc(N[C@@H](C)C3CC3)c3cc[nH]c3n2)c(Cl)n1 (stereo partly drawn) [Compound 46, 2-(3-chloro-4-((4-(((S)-1-cyclopropylethyl)amino)-7H-pyrrolo[2,3-d]pyrimidin-2-yl)amino)-1H-pyrazol-1-yl)-N-methylpropanamide]
0.019 µM | 0.044 µM | CC(C)n1cc(Nc2nc(N(C)[C@@H](C)C3CC3)c3cc[nH]c3n2)cn1 [Compound 48, (S)-N4-(1-cyclopropylethyl)-N2-(1-isopropyl-1H-pyrazol-4-yl)-N4-methyl-7H-pyrrolo[2,3-d]pyrimidine-2,4-diamine]
0.027 µM | 0.069 µM | COCC(C)n1cc(Nc2nc(N(C)[C@@H](C)C3CC3)c3cc[nH]c3n2)cn1 (stereo partly drawn) [Compound 49, N4-((S)-1-cyclopropylethyl)-N2-(1-(1-methoxypropan-2-yl)-1H-pyrazol-4-yl)-N4-methyl-7H-pyrrolo[2,3-d]pyrimidine-2,4-diamine]
0.066 µM | 0.102 µM | C[C@H](Nc1nc(Nc2cn([C@H]3CCOC3)nn2)nc2[nH]ccc12)C1CC1 [Compound 51, N4-((S)-1-cyclopropylethyl)-N2-(1-((S)-tetrahydrofuran-3-yl)-1H-1,2,3-triazol-4-yl)-7H-pyrrolo[2,3-d]pyrimidine-2,4-diamine]
0.021 µM | 0.027 µM | CC(O)Cn1cc(Nc2nc(N[C@@H](C)C3CC3)c3cc[nH]c3n2)nn1 (stereo partly drawn) [Compound 54, 1-(4-((4-(((S)-1-cyclopropylethyl)amino)-7H-pyrrolo[2,3-d]pyrimidin-2-yl)amino)-1H-1,2,3-triazol-1-yl)propan-2-ol]
0.009 µM and 0.019 µM | 0.013 µM and 0.032 µM | C[C@H](Nc1nc(Nc2cn([C@H](C)CO)nn2)nc2[nH]ccc12)C1CC1 [Compound 55, (R)-2-(4-((4-(((S)-1-cyclopropylethyl)amino)-7H-pyrrolo[2,3-d]pyrimidin-2-yl)amino)-1H-1,2,3-triazol-1-yl)propan-1-ol]
0.073 µM | 0.115 µM | C[C@H](Nc1nc(Nc2cn(C3COC3)nn2)nc2[nH]ccc12)C1CC1 [Compound 56, (S)-N4-(1-cyclopropylethyl)-N2-(1-(oxetan-3-yl)-1H-1,2,3-triazol-4-yl)-7H-pyrrolo[2,3-d]pyrimidine-2,4-diamine]
0.072 µM | 0.101 µM | C[C@H](Nc1nc(Nc2cn([C@@H](C)CO)nn2)nc2[nH]ccc12)C1CC1 [Compound 58, (S)-2-(4-((4-(((S)-1-cyclopropylethyl)amino)-7H-pyrrolo[2,3-d]pyrimidin-2-yl)amino)-1H-1,2,3-triazol-1-yl)propan-1-ol]
0.051 µM | 0.115 µM | CC(C)n1ccc(Nc2nc(N[C@@H](C)C3CC3)c3nc[nH]c3n2)n1 [Compound 59, (S)-N6-(1-cyclopropylethyl)-N2-(1-isopropyl-1H-pyrazol-3-yl)-9H-purine-2,6-diamine]
0.032 µM | 0.065 µM | Cc1cc(Nc2nc(N[C@@H](C)C3CC3)c3nc[nH]c3n2)nn1C(C)C [Compound 60, (S)-N6-(1-cyclopropylethyl)-N2-(1-isopropyl-5-methyl-1H-pyrazol-3-yl)-9H-purine-2,6-diamine]
